Measured values as given in patent US8575376B2, “Steroide anionic compounds, method of their production, usage and pharmaceutical preparation involving them” (Ustav Organicke Chemie A Biochemie Akademie Ved Ceske …, priority 2009, dated 2013).

Columns and labels:
C6 glioma cell line = assay: Growth of glioma cells in culture; type: cell-based; settings: 0.1 and 1 μg in 50 ml β-cyclodextrine solution, 3 div + 6 days
Experimental: The effect of compound from the example 9 (the model molecule) on growth of glioma cells was studied on C6 glioma cell line (ATTC, Rockville). The model molecule was tested at doses of 0.1 and 1 μg dissolved in 50 ml of β-cyclodextrine solution. Parallel control groups were administered by cholesterol at doses of 0.1 and 1 μg dissolved in 50 ml of β-cyclodextrine solution. The last group included in the experiment was left intact without any application.
The cells were cultivated in vitro for 3 days (div). Afterwards tested molecule was applied and the cell culture was studied for additional 6 days. Olympus microscope with phase contrast and 200× magnification was used for the cell monitoring.

mice (ICR) = assay: Depression-like behavior induced by repeated social defeat, open field; type: in vivo, mouse; settings: 1 and 10 mg/kg orally, 30 min prior
Experimental: Naive adult male mice (albino out-bred strain ICR, VELAZ s.r.o., Prague, Czech Republic, 30-37 g) were used in this study. Food and water were available ad libitum. Mice were housed either individually without any handling in self-cleaning cages with a grid floor (8×6×13 cm) or in groups of 17-20 in standard plastic cages (38×22×14 cm) with the floors covered with wooden shavings. After 3 weeks, each individually housed mouse was allowed 30 min adaptation in a Plexiglas neutral observation cage (20×20×30 cm) with clean wooden shavings before it was coupled with a group-housed male partner for 4 min/day. […] Animals were housed, and behavioural testing was performed in a different room during the light phase of the constant light-dark cycle with lights on at 6:00 and off at 18:00 h. Temperature was maintained at 21° C., and relative humidity was 50%. The mice were not handled except on the experimental days.
Group-housed males were used for the experiment. […] Over a 3-min testing period, the distance traveled, as a marker of locomotor/exploratory behaviour, in the open field was measured. […] Thirty minutes following the drug administration, the animal was placed into the open field arena and distance traveled was measured, as described before. […]

rats = assay: Ischemic-hypoxic brain damage (bilateral carotid occlusion + 10% O2): AAPA, rotarod, beam walking; type: in vivo, rat
Experimental: The effect of compound from example 9 on cognitive coordination and motor activity was examined in stroke model of ischemic brain injury. Ischemic-hypoxic damage was induced by bilateral occlusion of common carotid arteries and subsequent confinement in box with 10% O2 (for 30 min). The animals were injected i.p. by compound from example 9 dissolved in β-cyclodextrine (1 mg/kg) immediately after their removal from box. Ischemic group was injected only by β-cyclodextrine in the same time and volume. Surgery was conducted under anesthesia (xylazine 6 mg/kg, thiopental 50 mg/kg).
It is known that ischemia-hypoxia causes neuronal necrosis in specifically vulnerable areas of brain. The two-vessel occlusion/hypoxic model gives rise to stroke changes, for example in cells of the hippocampus, caudatoputamen and neocortex. As such structures are intimately involved in memory, cognitive and motor processes, ischemia/hypoxia leads to impairment in these functions. Used animal model of stroke damage dealing with ischemia/hypoxia has enabled the identification of deleterious phenomena that may be corrected or neutralized by drugs.
The effect of ischemic was evaluated a week after surgical procedures in AAPA task, beam walking and rotarod. Ischemia led to deterioration of motor activity (rotarod and beam walking) and deficit in cognitive coordination.

Long-Evans rats = assay: Scopolamine-induced cognitive deficit in AAPA (model of Alzheimer disease); type: in vivo, rat; settings: Example 9 1 ml/kg of 1.0 mg/ml i.p. + scopolamine 2.0 mg/kg
Experimental: The effect of the compound from example 9 on an animal model of age-related cognitive decline and neurodegenerative disorders (including Alzheimer disease) is documented. In the present experiment the effect of central muscarinic blockade by systemic administration of scopolamine at dose 2.0 mg/kg on both reinforced retention of the AAPA and re-acquisition of the AAPA in a new environment was investigated (by the standard method described previously; see Vales and Stuchlik, 2005).
The compound from example 9 was dissolved in β-cyclodextrine (at a concentration of 1.0 mg/ml). Animals were injected intraperitoneally with 1 ml/kg b.w. of this solution or with 1 ml/kg b.w. of β-cyclodextrine. All animals thus received the same volume of liquid per body weight in each injection. Injections were delivered 40 min prior to behavioural testing). Scopolamine hydrobromide (scopolamine; Sigma Aldrich) was dissolved in saline (0.9% NaCl, 2.0 mg/ml). Animals were injected intraperitoneally with 1 ml/kg b.w. of this solution or with 1 ml/kg b.w. of saline. All animals thus received the same volume of liquid per body weight in each injection. Injections were delivered 20 min prior to behavioural testing. Adult male hooded rats of the Long-Evans strain (3 months old; weighing 300-400g) was used.
The active allothetic place avoidance apparatus is described in example 28. […]

[1] = 1 mg/kg i.p. immediately after hypoxia, tested a week later

Which “effect on growth of glioma cells” value (C6 glioma cell line) does the source give for `CC(=O)[C@H]1CC[C@H]2[C@@H]3CC[C@@H]4C[C@H](OC(=O)[C@@H](N)CCC(=O)O)CC[C@]4(C)[C@H]3CC[C@]12C` [Example 9, 20-Oxo-5β-pregnan-3α-yl L-glutamyl 1-ester] here?
Its value is “overall slight cytostatic and pro-differentiation effect on glioma cells”.

And the “hypolocomotion in open field after repeated social defeat” value (mice (ICR))?
The value was “reduced a hypolocomotion in an open field induced by agonistic interactions in mice”.

And the “total path in AAPA after ischemia/hypoxia” value (rats; 1 mg/kg i.p.)?
Its value is “None of the experimental condition affected locomotion in AAPA”.

And the “cognitive deficit in AAPA (entrances) after ischemia/hypoxia” value (rats; [1])?
Its value is “improves cognitive deficit induced by ischemic/hypoxic procedures in AAPA task”.

What about the “motor changes in rotarod and beam walking after ischemia/hypoxia” value (rats; [1]) of the same molecule?
The value was “has no effect on disturbance of motor changes in rotarod and beam walking test”.

And the “scopolamine-induced deficit in AAPA (number of entrances)” value (Long-Evans rats)?
Its value is “tends to be decreased”.
